Results published in patent US8933015B2, “Macrocyclic inhibitors of flaviviridae viruses” (Gilead Sciences, Inc., priority 2010, dated 2015).

Legend:
[1] = test system: human hepatoma Huh-7 cell line harboring a HCV replicon; assay: HCV replicon assay (inhibition of viral replication, luciferase); assay type: cell-based; conditions: Hepatitis C virus; for EC50: Huh-7, 72 h; for inhibition at 1 µM: Huh-7, read-out: % inhibition at 1 μM
Procedure: The anti-HCV activity of the compounds of this invention was tested in a human hepatoma Huh-7 cell line harboring a HCV replicon. The assay comprised the following steps:
Step 1: Compound Preparation and Serial Dilution
Serial dilution was performed in 100% DMSO in a 384-well plate. A solution containing a compound at 225-fold concentration of the starting final serial dilution concentration was prepared in 100% DMSO and 15 uL added to the pre-specified wells in column 3 or 13 of a polypropylene 384-well plate. The rest of the 384-well plate was filled with 10 uL 100% DMSO except for columns 23 and 24, where 10 uL of 500 uM a HCV protease inhibitor (ITMN-191) in 100% DMSO was added. […] The plate was then placed on a Biomek FX Workstation to start the serial dilution. The serial dilution was performed for ten cycles of 3-fold dilution from column 3 to 12 or from column 13 to 22.
Step 2: Cell Culture Plate Preparation and Compound Addition
To each well of a black polypropylene 384-well plate, 90 μL of cell media containing 1600 suspended Huh-7 HCV replicon cells was added with a Biotek uFlow Workstation. A volume of 0.4 μL of the compound solution was transferred from the serial dilution plate to the cell culture plate on a Biomek FX Workstation. The DMSO concentration in the final assay condition was 0.44%. The plates were incubated for 3 days at 37° C. with 5% CO2 and 85% humidity.
Step 3: Detection of Cytotoxicity and Inhibition of Viral Replication
b) Assessment of inhibition of viral replication: The calcein-PBS solution in the 384-well cell culture plate was aspirated with a Biotek EL405 plate-washer. A volume of 20 μL of Dual-Glo luciferase buffer (Promega, Dual-Glo Luciferase Assay Reagent, cat. #E298B) was added to each well of the plate with a Biotek uFlow Workstation. The plate was incubated for 10 minutes at room temperature. A volume of 20 μL of a solution containing 1:100 mixture of Dual-Glo Stop & Glo substrate (Promega, Dual-Glo Luciferase Assay Reagent, cat. #E313B) and Dual-Glo Stop & Glo buffer (Promega, Dual-Glo Luciferase Assay Reagent, cat. #E314B) was then added to each well of the plate with a Biotek uFlow Workstation. The plate was incubated at room temperature for 10 minutes before the luminescence signal was measured with a Perkin Elmer Envision Plate Reader.
The percent cytotoxicity was determined by calcein AM conversion to fluorescent product. The average fluorescent signal from the DMSO control wells were defined as 100% nontoxic. The individual fluorescent signal from testing compound treated well was divided by the average signal from DMSO control wells and then multiplied by 100% to get the percent viability. The percent anti-HCV replication activity was determined by the luminescence signal from the testing well compared to DMSO controls wells. The background signal was determined by the average luminescence signal from the HCV protease inhibitor treated wells and was subtracted from the signal from the testing wells as well as the DMSO control wells.
Where b is Hill's coefficient. See, for reference, Hill, A. V., The Possible Effects of the Aggregation of the Molecules of Hemoglobin on its Dissociation Curves, J. Physiol. 40: iv-vii. (1910).
% inhibition values at a specific concentration, for example 2 μM, can also be derived from the formula above.
The EC50's are presented as a % inhibition.

[2] = target: cyclophilin A (Homo sapiens, UniProt P62937); assay: Cyclophilin A TR-FRET competitive binding assay; conditions: inhibition of cyclophilin binding; 5 nM CypA, 150 nM CsA-Cy5
Chain of cyclophilin A (P62937 whole entry, species assumed): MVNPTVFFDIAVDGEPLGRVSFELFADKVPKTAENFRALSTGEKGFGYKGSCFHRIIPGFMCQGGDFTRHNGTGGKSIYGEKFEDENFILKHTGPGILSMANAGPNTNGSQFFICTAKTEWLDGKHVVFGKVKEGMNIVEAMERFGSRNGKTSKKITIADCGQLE
Procedure: Cyclophilin A TR-FRET Competitive Binding Assay
Inhibitor potency was measured using a competitive binding assay with a time-resolved fluorescence resonance energy transfer (TR-FRET) readout. […] The total volume of the assay solution was 100 μL. […] An IC50 value was calculated using a four-parameter logistic fit.

Row | Compound | EC50 [1] | inhibition at 1 µM [1] | IC50 [2]
1 | CO[C@@H]1[C@@H](C)[C@@H](OC)/C=C/C=C/CCOC(=O)[C@@H]2CCCN(N2)C(=O)[C@H](Cc2cccc(O)c2)NC(=O)[C@H](C(C)C)NC(=O)[C@@H]1C [Compound 3, (13E,15E)-(3S,6S,9R,10R,11S,12S,21S)-3-(3-Hydroxy-benzyl)-6-isopropyl-10,12-dimethoxy-9,11-dimethyl-19-oxa-1,4,7,25-tetraaza-bicyclo[19.3.1]pentacosa-13,15-diene-2,5,8,20-tetraone] | < 1000 nM | 59% | –
2 | CO[C@@H]1[C@@H](C)[C@@H](OC)/C=C/C=C/CCNC(=O)[C@@H]2CCCN(N2)C(=O)[C@H](Cc2cccc(O)c2)NC(=O)[C@H](C(C)C)NC(=O)[C@@H]1C [Compound 4, (13E,15E)-(3S,6S,9R,10R,11S,12S,21S)-3-(3-Hydroxy-benzyl)-6-isopropyl-10,12-dimethoxy-9,11-dimethyl-1,4,7,19,25-pentaaza-bicyclo[19.3.1]pentacosa-13,15-diene-2,5,8,20-tetraone] | 1100 to 10000 nM | 10% | < 100 nM
3 | CO[C@@H]1[C@@H](C)[C@@H](OC)/C=C/c2cccc(c2)COC(=O)[C@@H]2CCCN(N2)C(=O)[C@H](Cc2cccc(O)c2)NC(=O)[C@H](C(C)C)NC(=O)[C@@H]1C [Compound 5, (E)-(5S,11S,14S,17R,18R,19S,20S)-11-(3-Hydroxy-benzyl)-14-isopropyl-18,20-dimethoxy-17,19-dimethyl-3-oxa-9,12,15,28-tetraaza-tricyclo[21.3.1.1*5,9*]octacosa-1(27),21,23,25-tetraene-4,10,13,16-tetraone] | < 1000 nM | 67% | < 100 nM
4 | CC(C)[C@@H]1NC(=O)[C@H](C)[C@H](O)c2ccc(cc2)/C=C/CCOC(=O)[C@@H]2CCCN(N2)C(=O)[C@H](Cc2cccc(O)c2)NC1=O [Compound 8, (E)-(8S,14S,17S,20R,21S)-21-Hydroxy-14-(3-hydroxy-benzyl)-17-isopropyl-20-methyl-6-oxa-12,15,18,27-tetraaza-tricyclo[20.2.2.1*8,12*]heptacosa-1(25),2,22(26),23-tetraene-7,13,16,19-tetraone] | – | 13% | 101 to 1000 nM
5 | CO[C@@H]1CC/C=C/c2cccc(c2)COC(=O)[C@@H]2CCCN(N2)C(=O)[C@H](Cc2cccc(O)c2)NC(=O)[C@H](C(C)C)NC(=O)[C@@H]1C [Compound 10, (E)-(5S,11S,14S,17R,18R)-11-(3-Hydroxy-benzyl)-14-isopropyl-18-methoxy-17-methyl-3-oxa-9,12,15,28-tetraaza-tricyclo[21.3.1.1*5,9*]octacosa-1(27),21,23,25-tetraene-4,10,13,16-tetraone] | – | 59% | –
6 | CO[C@@H]1CC/C=C/C=C/CCOC(=O)[C@@H]2CCCN(N2)C(=O)[C@H](Cc2cccc(O)c2)NC(=O)[C@H](C(C)C)NC(=O)[C@@H]1C [Compound 11, (13E,15E)-(3S,6S,9R,10R,21S)-3-(3-Hydroxy-benzyl)-6-isopropyl-10-methoxy-9-methyl-19-oxa-1,4,7,25-tetraaza-bicyclo[19.3.1]pentacosa-13,15-diene-2,5,8,20-tetraone] | < 1000 nM | 67% | –
7 | CO[C@@H]1CC/C=C/c2cccc(c2)[C@@H](C)OC(=O)[C@@H]2CCCN(N2)C(=O)[C@H](Cc2cccc(O)c2)NC(=O)[C@H](C(C)C)NC(=O)[C@@H]1C [Compound 13, (E)-(2R,5S,11S,14S,17R,18R)-11-(3-Hydroxy-benzyl)-14-isopropyl-18-methoxy-2,17-dimethyl-3-oxa-9,12,15,28-tetraaza-tricyclo[21.3.1.1*5,9*]octacosa-1(26),21,23(27),24-tetraene-4,10,13,16-tetraone] | < 1000 nM | 93% | –
